Laboratory results: article PMC2905478 (Peptides, 2010)
Where two headings read alike, the source gives them in different places. *1 amine or outer side, *2 acyl side, *3 side chain or, on linkers, in order; H or OH if unused. Where a SMILES comes first, the peptide text is derived from it. [ ]: non-standard residue; d: D form. X1 = O=C(C[C@@H](N[*:1])c1ccc(Cl)cc1)[*:2]; β3hPhg = O=C(C[C@@H](N[*:1])c1ccccc1)[*:2]; Nle = CCCC[C@H](N)C(=O)O

Tests used:
hBRS-3 [1] = molecular target: T1, hBRS-3 (Homo sapiens, UniProt P32247); details: for affinities from binding studies for the hBRS-3 receptor, range over 3 cell lines: 3 hBRS-3 cell lines (NC-N417, Balb, H1299)
hBRS-3 [2] = molecular target: T1, hBRS-3; details: binding; hBRS-3 containing cells (H1299, Balb; Tables 2 and 3)
hGRPR [3] = molecular target: T2, hGRPR (Homo sapiens, UniProt P30550); details: binding, HuTu-80 cells, native hGRPR
hNMBR [4] = molecular target: T3, hNMBR (Homo sapiens, UniProt P28336); details: binding; hNMBR/H1299 and hNMBR/Balb cells
hBRS-3 [5] = molecular target: T1, hBRS-3; details: for agonist efficacy for [3H]IP generation (full/partial agonist): each of the hBRS-3 containing cells, concentrations up to 10,000 nM; for fold less potent than peptide #1 at activating PLC: range over three hBRS-3 containing cells
hGRPR [6] = molecular target: T2, hGRPR; experiment: Stimulation of [3H]IP generation; details: for fold less potent than peptide #1 at activating PLC: hGRPR containing HuTu-80 and Balb cells
hNMBR [7] = molecular target: T3, hNMBR; experiment: Stimulation of [3H]IP generation; details: for fold less potent than peptide #1 at activating PLC: hNMBR containing H1299 and Balb cells
hBRS-3 [8] = molecular target: T1, hBRS-3; details: binding affinities
hBRS-3 [9] = molecular target: T1, hBRS-3; experiment: biochemical; details: IC50 (nM) hBRS-3/N417, half-maximal inhibition of binding; 50 pM radioligand, 22 °C, 60 min
hNMBR [10] = molecular target: T3, hNMBR; experiment: biochemical
hNMBR [11] = molecular target: T3, hNMBR; experiment: biochemical; details: IC50 (nM) hNMBR/H1299, half-maximal inhibition of binding
hGRPR [12] = molecular target: T2, hGRPR; experiment: Stimulation of [3H]IP generation
hNMBR [13] = molecular target: T3, hNMBR; experiment: Stimulation of [3H]IP generation

T2 sequence (P30550 whole entry): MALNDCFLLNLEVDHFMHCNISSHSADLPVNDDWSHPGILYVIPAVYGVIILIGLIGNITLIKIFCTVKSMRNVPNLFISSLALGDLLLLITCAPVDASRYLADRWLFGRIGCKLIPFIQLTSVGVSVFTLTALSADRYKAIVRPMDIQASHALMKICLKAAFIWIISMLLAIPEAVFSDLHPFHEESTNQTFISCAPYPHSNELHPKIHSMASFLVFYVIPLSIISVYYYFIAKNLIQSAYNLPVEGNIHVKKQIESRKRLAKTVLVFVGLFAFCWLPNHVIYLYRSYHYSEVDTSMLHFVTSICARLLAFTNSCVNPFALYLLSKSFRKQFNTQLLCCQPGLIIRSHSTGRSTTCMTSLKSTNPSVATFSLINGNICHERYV
T3 sequence (P28336 whole entry): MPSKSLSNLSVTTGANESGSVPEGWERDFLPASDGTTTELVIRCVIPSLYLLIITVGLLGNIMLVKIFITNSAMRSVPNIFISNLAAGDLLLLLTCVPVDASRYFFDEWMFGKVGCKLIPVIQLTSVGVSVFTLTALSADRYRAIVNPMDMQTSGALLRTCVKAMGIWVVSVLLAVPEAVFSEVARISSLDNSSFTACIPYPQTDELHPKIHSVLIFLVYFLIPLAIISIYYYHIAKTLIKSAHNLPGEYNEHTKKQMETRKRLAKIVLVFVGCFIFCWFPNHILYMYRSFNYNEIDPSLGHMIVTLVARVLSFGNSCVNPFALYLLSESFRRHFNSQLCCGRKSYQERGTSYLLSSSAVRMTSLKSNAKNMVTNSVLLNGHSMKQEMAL
T1 sequence (P32247 whole entry): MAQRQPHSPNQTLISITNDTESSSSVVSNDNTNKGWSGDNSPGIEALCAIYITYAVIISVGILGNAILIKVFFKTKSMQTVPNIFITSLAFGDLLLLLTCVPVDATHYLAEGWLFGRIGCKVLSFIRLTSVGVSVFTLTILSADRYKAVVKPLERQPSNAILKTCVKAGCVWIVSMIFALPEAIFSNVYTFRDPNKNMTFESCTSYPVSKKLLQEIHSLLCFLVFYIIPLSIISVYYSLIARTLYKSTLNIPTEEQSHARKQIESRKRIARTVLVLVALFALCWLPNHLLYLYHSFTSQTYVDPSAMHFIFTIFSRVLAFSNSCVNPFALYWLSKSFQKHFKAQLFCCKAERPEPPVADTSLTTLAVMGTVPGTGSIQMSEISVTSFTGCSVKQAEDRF

Row | SMILES | affinities from binding studies for the hBRS-3 receptor, range over 3 cell lines (hBRS-3 [1]) | fold lower affinity than peptide #1, range over hBRS-3 cell lines (hBRS-3 [2]) | fold lower affinity than GRP or peptide #1 (hGRPR [3]) | fold lower affinity than NMB (and peptide #1) (hNMBR [4]) | agonist efficacy for [3H]IP generation (full/partial agonist) (hBRS-3 [5]) | fold less potent than peptide #1 at activating PLC (hBRS-3 [5]) | fold less potent than peptide #1 at activating PLC (hGRPR [6]) | fold less potent than peptide #1 at activating PLC (hNMBR [7]) | further results
1 | CCCC[C@H](NC(=O)[C@H](Cc1ccccc1)NC(=O)[C@H](Cc1c[nH]cn1)NC(=O)C[C@@H](NC(=O)[C@@H](NC(=O)[C@H](C)NC(=O)[C@H](Cc1c[nH]c2ccccc12)NC(=O)[C@H](CCC(N)=O)NC(=O)[C@H](N)Cc1ccc(O)cc1)C(C)C)c1ccc(Cl)cc1)C(N)=O [Peptide 3, [DTyr^6, (R)-Apa^11-4Cl, Phe^13, Nle^14]Bn(6-14)] (H-[dY]QWAV[X1]HF[Nle]-NH2) | nM affinities | 2.5–17 fold | 750 fold | 745–5900 fold | none functioning as a partial agonist | 3.3–10 fold | 123–270 fold | > 1000 fold | 
2 | CCCC[C@H](NC(=O)[C@H](Cc1ccccc1)NC(=O)[C@H](Cc1c[nH]cn1)NC(=O)C[C@@H](NC(=O)[C@@H](NC(=O)[C@H](C)NC(=O)[C@H](Cc1c[nH]c2ccccc12)NC(=O)[C@H](CCC(N)=O)NC(=O)[C@H](N)Cc1ccc(O)cc1)C(C)C)c1ccccc1)C(N)=O [Peptide 2, [DTyr^6, (R)-Apa^11, Phe^13, Nle^14]Bn(6-14)] (H-[dY]QWAV[β3hPhg]HF[Nle]-NH2) | nM affinities | 4–49 fold | 475 fold | 200–1100 fold | none functioning as a partial agonist | 4–14 fold | 10–25 fold | > 250 fold | selectivity for hBRS-3 in NCI-N417 cell over hGRPR natively expressed in Hutu cells (hBRS-3 [1]; binding affinities): 13 fold; selectivity for hBRS-3 natively expressed in NCI-N417 cells than hNMBR expressed in NCI-H1299 cells (hBRS-3 [1]; binding affinities): 15 fold; fold lower affinity than the universal ligand, peptide #1 (hBRS-3 [1]; binding, native hBRS-3 in NCI-N417 cells): 3 fold; selectivity for hBRS-3 over hGRPR in the different cells based on binding affinities (hBRS-3 [1]; range over cells): 13–32 fold; selectivity for hBRS-3 over the hNMBR based on binding affinities (hBRS-3 [1]; range over cells): 15 to 46 fold; selectivity for hBRS-3 expressed in Balb cells over hGRPR in the same cells (hBRS-3 [8]): 32 fold; selectivity for hBRS-3 expressed in Balb cells than hNMBR in the same cells (hBRS-3 [8]): 47 fold; selectivity (PLC potency) for hBRS-3 cells over hGRPR containing cells (hBRS-3 [5]; Tables 2-4): 10 to 26 fold; IC50 (hBRS-3 [9]): 4.3 ± 0.2 nM; IC50 (hNMBR [10]): 158 ± 8 nM; IC50 (hNMBR [11]): 66.1 ± 3.4 nM; EC50 (hGRPR [6]): 318 ± 25 nM; EC50 (hGRPR [12]): 58 ± 2 nM; EC50 (hNMBR [13]): 38 ± 1.2 nM; EC50 (hNMBR [7]): 195 ± 11 nM
